From ChEMBL document CHEMBL1201862, “PubChem BioAssay data set” (2004)
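96-well plates; 48 h exposure; 5 concentrations. Endpoints by linear interpolation between flanking doses. Not reached: highest tested concentration assigned. Here, GI50 denotes the concentration required for 50% inhibition of growth.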 The source made the active and inactive calls. Cut-off read from the data, not from the text of the source: active = GI50 up to about 1.1 µM and inactive = higher.

Tests used:
Experiment in all cases: NCI anticancer screen, dose series, 48 h
[1] = tested on: SK-MEL-5
[2] = tested on: RPMI-8226
[3] = tested on: SR
[4] = tested on: MDA-MB-231
[5] = tested on: DU-145
[6] = tested on: Hs-578T
[7] = tested on: HOP-92
[8] = tested on: TK-10
[9] = tested on: SNB-75
[10] = tested on: MDA-MB-435
[11] = tested on: A549
[12] = tested on: OVCAR-5
[13] = tested on: MCF7
[14] = tested on: OVCAR-4
[15] = tested on: HCT-116
[16] = tested on: MOLT-4
[17] = tested on: SK-MEL-28
[18] = tested on: A498
[19] = tested on: T47D
[20] = tested on: SF-539

For `C=C1C(=O)O[C@H]2C1C[C@H](O)/C(C)=C/CC[C@@]1(C)O[C@H]21` (stereo partly specified), the GI50 [1] was 10.7 µM (inactive), the GI50 [2] was 5.2 µM (inactive) and the GI50 [3] was 6.04 µM (inactive). For the same compound, the GI50 [4] was 18.9 µM (inactive), the GI50 [5] was 21.2 µM (inactive) and the GI50 [6] was 23.6 µM (inactive). The GI50 [7] was 17.3 µM (inactive), the GI50 [8] was 15.6 µM (inactive) and the GI50 [9] was 32.3 µM (inactive). For the same compound, the GI50 [10] was 17.8 µM (inactive), the GI50 [11] was > 100 µM (inactive) and the GI50 [12] was 19.1 µM (inactive). For the same compound, the GI50 [13] was 13.2 µM (inactive), the GI50 [14] was 14.1 µM (inactive) and the GI50 [15] was 14.8 µM (inactive). The GI50 [16] was 2.59 µM (inactive) and the GI50 [17] was 23.8 µM (inactive).
With `CC(C)(C)OC/C=C(\Br)CO` the GI50 [2] was > 100 µM (inactive), the GI50 [4] was > 100 µM (inactive) and the GI50 [5] was > 100 µM (inactive). For the same compound, the GI50 [9] was > 100 µM (inactive), the GI50 [10] was > 100 µM (inactive) and the GI50 [18] was > 100 µM (inactive). The GI50 [11] was > 100 µM (inactive), the GI50 [12] was > 100 µM (inactive) and the GI50 [19] was > 100 µM (inactive). For the same compound, the GI50 [13] was > 100 µM (inactive), the GI50 [14] was > 100 µM (inactive) and the GI50 [15] was > 100 µM (inactive). For the same compound, the GI50 [16] was > 100 µM (inactive), the GI50 [20] was > 100 µM (inactive) and the GI50 [17] was > 100 µM (inactive).
`CCCCCC(/C=C/C1CCC(=O)C1)OCOCCOC` (stereo unspecified) was tested, and the GI50 [1] was 47.8 µM (inactive), the GI50 [2] was 21.6 µM (inactive) and the GI50 [3] was > 46.3 µM (inactive). For the same compound, the GI50 [4] was 69.8 µM (inactive), the GI50 [5] was > 100 µM (inactive) and the GI50 [7] was 24.2 µM (inactive). The GI50 [8] was 37.2 µM (inactive), the GI50 [9] was 11.5 µM (inactive) and the GI50 [10] was 33.2 µM (inactive). The GI50 [18] was 48.2 µM (inactive), the GI50 [11] was 59.7 µM (inactive) and the GI50 [12] was > 100 µM (inactive). For the same compound, the GI50 [19] was 52.1 µM (inactive), the GI50 [13] was 33.5 µM (inactive) and the GI50 [14] was 47.9 µM (inactive). For the same compound, the GI50 [15] was 27 µM (inactive), the GI50 [16] was 15.8 µM (inactive) and the GI50 [20] was 19.8 µM (inactive). The GI50 [17] was > 77.3 µM (inactive).
`CN(C)CCCNC(=O)c1cc(NC(=O)c2cc(NC(=O)[C@@H]3C[C@H]3C(=O)Nc3cc(C(=O)Nc4cc(C(=O)NCCCN(C)C)n(C)c4)n(C)c3)cn2C)cn1C` was tested, and the GI50 [1] was > 100 µM (inactive), the GI50 [2] was > 100 µM (inactive) and the GI50 [3] was > 100 µM (inactive). For the same compound, the GI50 [4] was > 100 µM (inactive), the GI50 [5] was > 100 µM (inactive) and the GI50 [7] was > 100 µM (inactive). The GI50 [9] was > 100 µM (inactive), the GI50 [10] was > 100 µM (inactive) and the GI50 [11] was > 100 µM (inactive). For the same compound, the GI50 [12] was > 100 µM (inactive), the GI50 [13] was > 100 µM (inactive) and the GI50 [14] was > 100 µM (inactive). For the same compound, the GI50 [15] was > 100 µM (inactive), the GI50 [16] was > 100 µM (inactive) and the GI50 [20] was > 100 µM (inactive). For the same compound, the GI50 [17] was > 100 µM (inactive).
`C=C(Cl)C(=C)CCC(Cl)C(C)(C)Cl` (stereo unspecified) was tested, and the GI50 [1] was > 100 µM (inactive), the GI50 [2] was > 100 µM (inactive) and the GI50 [3] was > 100 µM (inactive). The GI50 [4] was > 100 µM (inactive), the GI50 [5] was > 100 µM (inactive) and the GI50 [6] was > 100 µM (inactive). The GI50 [7] was > 100 µM (inactive), the GI50 [8] was > 100 µM (inactive) and the GI50 [9] was > 100 µM (inactive). For the same compound, the GI50 [10] was > 100 µM (inactive), the GI50 [18] was > 100 µM (inactive) and the GI50 [11] was > 100 µM (inactive). For the same compound, the GI50 [12] was > 100 µM (inactive), the GI50 [13] was > 100 µM (inactive) and the GI50 [14] was > 100 µM (inactive). The GI50 [15] was > 100 µM (inactive), the GI50 [16] was > 100 µM (inactive) and the GI50 [20] was > 100 µM (inactive). For the same compound, the GI50 [17] was > 100 µM (inactive).
In the case of `CC(C)[C@@H]1NC(=O)[C@H]2N=C(O[C@@H]2C)[C@@H]2CCCN2C(=O)[C@H](Cc2ccccc2)NC(=O)[C@@H]2CSC(=N2)[C@@H](Cc2ccccc2)NC(=O)[C@@H]2CSC1=N2`, the GI50 [1] is reported as > 50 µM (inactive), the GI50 [2] is reported as 9.29 µM (inactive) and the GI50 [4] is reported as > 50 µM (inactive). The GI50 [5] was > 50 µM (inactive), the GI50 [6] was 32.8 µM (inactive) and the GI50 [8] was > 50 µM (inactive). The GI50 [9] was 0.216 µM (active), the GI50 [10] was 36.4 µM (inactive) and the GI50 [11] was 18.7 µM (inactive). The GI50 [12] was > 50 µM (inactive), the GI50 [19] was > 50 µM (inactive) and the GI50 [13] was 18.9 µM (inactive). The GI50 [14] was 19.8 µM (inactive), the GI50 [15] was > 50 µM (inactive) and the GI50 [16] was 26.8 µM (inactive). For the same compound, the GI50 [20] was 17.5 µM (inactive) and the GI50 [17] was > 50 µM (inactive).
For `COc1ccc(-c2oc3cc(OC)c(OC)c(OC)c3c(=O)c2OC)cc1OC` [HEXAMETHOXYFLAVONE], the GI50 [1] was 53.8 µM (inactive), the GI50 [4] was > 100 µM (inactive) and the GI50 [5] was > 100 µM (inactive). The GI50 [6] was > 100 µM (inactive), the GI50 [7] was 16.4 µM (inactive) and the GI50 [8] was > 100 µM (inactive). For the same compound, the GI50 [9] was > 100 µM (inactive), the GI50 [10] was > 100 µM (inactive) and the GI50 [18] was > 100 µM (inactive). The GI50 [11] was > 100 µM (inactive), the GI50 [12] was > 100 µM (inactive) and the GI50 [19] was 79.6 µM (inactive). The GI50 [13] was > 100 µM (inactive), the GI50 [14] was > 100 µM (inactive) and the GI50 [15] was > 100 µM (inactive). The GI50 [16] was > 100 µM (inactive), the GI50 [20] was > 100 µM (inactive) and the GI50 [17] was > 100 µM (inactive).
